Reference: ChEMBL document CHEMBL1201862, “PubChem BioAssay data set” (2004)
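Method: 48-hour compound exposure of cells in 96-well plates, five concentrations, linear interpolation of endpoints. At the GI50, growth is halved.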 Active and inactive are the calls of the source. Rule as the data show it: active = GI50 up to about 1.1 µM and inactive = higher.

What was measured:
Assay in all cases: NCI tumour cell line growth inhibition, 48 h
DMS-114 = system: DMS-114
SR = system: SR
NCI-H226 = system: NCI-H226
HCT-15 = system: HCT-15
786-0 = system: 786-0
COLO 205 = system: COLO 205
A498 = system: A498
IGROV-1 = system: IGROV-1
HL-60 = system: HL-60
OVCAR-4 = system: OVCAR-4
LXFL 529 = system: LXFL 529
K562 = system: K562
KM12 = system: KM12
RPMI-8226 = system: RPMI-8226
SN12C = system: SN12C
U-251 = system: U-251
UO-31 = system: UO-31
SK-MEL-28 = system: SK-MEL-28
SF-539 = system: SF-539
DLD-1 = system: DLD-1
OVCAR-8 = system: OVCAR-8
CCRF-CEM = system: CCRF-CEM
SNB-78 = system: SNB-78
UACC-257 = system: UACC-257
SW-620 = system: SW-620
SK-MEL-2 = system: SK-MEL-2
M14 = system: M14
RXF 393 = system: RXF 393
SNB-75 = system: SNB-75
HT-29 = system: HT-29
NCI-H460 = system: NCI-H460
LOX IMVI = system: LOX IMVI
XF498 = system: XF498
ACHN = system: ACHN
SNB-19 = system: SNB-19
A549 = system: A549
NCI-H23 = system: NCI-H23
SK-MEL-5 = system: SK-MEL-5
HCC 2998 = system: HCC 2998
DMS-273 = system: DMS-273
OVCAR-5 = system: OVCAR-5
Malme-3M = system: Malme-3M
SK-OV-3 = system: SK-OV-3
HCT-116 = system: HCT-116
UACC-62 = system: UACC-62
SF-295 = system: SF-295
SF-268 = system: SF-268
NCI-H522 = system: NCI-H522
OVCAR-3 = system: OVCAR-3
TK-10 = system: TK-10
HOP-62 = system: HOP-62
MOLT-4 = system: MOLT-4
HOP-92 = system: HOP-92
HOP-18 = system: HOP-18
CAKI-1 = system: CAKI-1
M19-MEL = system: M19-MEL
KM-20L2 = system: KM-20L2
EKVX = system: EKVX

Compound: COc1ccc(OC(C)=O)c2c1CCC=CC2=O
- GI50 (DMS-114): 19.1 µM (inactive)
- GI50 (SR): 15.1 µM (inactive)
- GI50 (NCI-H226): 18.8 µM (inactive)
- GI50 (HCT-15): 14.5 µM
- GI50 (786-0): 17.9 µM (inactive)
- GI50 (COLO 205): 9.2 µM (inactive)
- GI50 (A498): 21.5 µM (inactive)
- GI50 (IGROV-1): 17.7 µM (inactive)
- GI50 (HL-60): 2.47 µM (inactive)
- GI50 (OVCAR-4): 20 µM (inactive)
- GI50 (LXFL 529): 9.57 µM (inactive)
- GI50 (K562): 3.76 µM (inactive)
- GI50 (KM12): 3.4 µM (inactive)
- GI50 (RPMI-8226): 1.01 µM (active)
- GI50 (SN12C): 17.1 µM (inactive)
- GI50 (U-251): 18.3 µM (inactive)
- GI50 (UO-31): 17.2 µM (inactive)
- GI50 (SK-MEL-28): 15 µM (inactive)
- GI50 (SF-539): 16.9 µM (inactive)
- GI50 (DLD-1): > 10 µM (inactive)
- GI50 (OVCAR-8): 16.8 µM (inactive)
- GI50 (CCRF-CEM): 3.44 µM (inactive)
- GI50 (SNB-78): 38.5 µM (inactive)
- GI50 (UACC-257): 17.7 µM (inactive)
- GI50 (SW-620): 13.2 µM (inactive)
- GI50 (SK-MEL-2): 17.8 µM (inactive)
- GI50 (M14): 6.78 µM (inactive)
- GI50 (RXF 393): 9.16 µM (inactive)
- GI50 (SNB-75): 15.8 µM (inactive)
- GI50 (HT-29): 12.3 µM (inactive)
- GI50 (NCI-H460): 19.1 µM (inactive)
- GI50 (LOX IMVI): 4.7 µM (inactive)
- GI50 (XF498): 17.3 µM (inactive)
- GI50 (ACHN): 17.9 µM (inactive)
- GI50 (SNB-19): 17.6 µM (inactive)
- GI50 (A549): 19.1 µM (inactive)
- GI50 (NCI-H23): 18.5 µM (inactive)
- GI50 (SK-MEL-5): 15.6 µM (inactive)
- GI50 (HCC 2998): 17.1 µM (inactive)
- GI50 (DMS-273): 16.6 µM (inactive)
- GI50 (OVCAR-5): 16.7 µM (inactive)
- GI50 (Malme-3M): 20.1 µM (inactive)
- GI50 (SK-OV-3): 17.5 µM (inactive)
- GI50 (HCT-116): 18.7 µM (inactive)
- GI50 (UACC-62): 13.4 µM (inactive)
- GI50 (SF-295): 20.9 µM (inactive)
- GI50 (SF-268): > 10 µM (inactive)
- GI50 (NCI-H522): 1.86 µM (inactive)
- GI50 (OVCAR-3): 15.8 µM (inactive)
- GI50 (TK-10): 18.3 µM (inactive)
- GI50 (HOP-62): 14.7 µM (inactive)
- GI50 (MOLT-4): 12.2 µM (inactive)
- GI50 (HOP-92): 2.83 µM (inactive)

Compound: CC(=O)NC(CCCN(Cc1ccccc1)C(=O)NCCCl)C(=O)NCc1ccccc1 (stereo not given)
- GI50 (HOP-18): > 100 µM (inactive)
- GI50 (DMS-114): > 100 µM (inactive)
- GI50 (SR): > 100 µM (inactive)
- GI50 (NCI-H226): > 100 µM (inactive)
- GI50 (HCT-15): > 100 µM
- GI50 (786-0): > 100 µM (inactive)
- GI50 (COLO 205): > 100 µM (inactive)
- GI50 (A498): > 100 µM (inactive)
- GI50 (IGROV-1): > 100 µM (inactive)
- GI50 (HL-60): > 100 µM (inactive)
- GI50 (OVCAR-4): > 100 µM (inactive)
- GI50 (LXFL 529): > 100 µM (inactive)
- GI50 (K562): > 100 µM (inactive)
- GI50 (KM12): > 100 µM (inactive)
- GI50 (RPMI-8226): > 100 µM (inactive)
- GI50 (SN12C): > 100 µM (inactive)
- GI50 (U-251): > 100 µM (inactive)
- GI50 (UO-31): > 100 µM (inactive)
- GI50 (SK-MEL-28): > 100 µM (inactive)
- GI50 (SF-539): > 100 µM (inactive)
- GI50 (CAKI-1): > 100 µM (inactive)
- GI50 (DLD-1): > 100 µM (inactive)
- GI50 (OVCAR-8): > 100 µM (inactive)
- GI50 (CCRF-CEM): > 100 µM (inactive)
- GI50 (SNB-78): > 100 µM (inactive)
- GI50 (UACC-257): > 100 µM (inactive)
- GI50 (SW-620): > 100 µM (inactive)
- GI50 (M19-MEL): > 100 µM (inactive)
- GI50 (SK-MEL-2): > 100 µM (inactive)
- GI50 (M14): > 100 µM (inactive)
- GI50 (RXF 393): > 100 µM (inactive)
- GI50 (SNB-75): > 69.5 µM (inactive)
- GI50 (KM-20L2): > 100 µM (inactive)
- GI50 (HT-29): > 100 µM (inactive)
- GI50 (NCI-H460): > 100 µM (inactive)
- GI50 (LOX IMVI): > 100 µM (inactive)
- GI50 (ACHN): > 100 µM (inactive)
- GI50 (SNB-19): > 100 µM (inactive)
- GI50 (A549): > 100 µM (inactive)
- GI50 (NCI-H23): > 100 µM (inactive)
- GI50 (SK-MEL-5): > 100 µM (inactive)
- GI50 (HCC 2998): > 100 µM (inactive)
- GI50 (DMS-273): > 100 µM (inactive)
- GI50 (OVCAR-5): > 100 µM (inactive)
- GI50 (Malme-3M): > 100 µM (inactive)
- GI50 (SK-OV-3): > 100 µM (inactive)
- GI50 (HCT-116): > 100 µM (inactive)
- GI50 (UACC-62): > 100 µM (inactive)
- GI50 (SF-295): > 100 µM (inactive)
- GI50 (SF-268): > 100 µM (inactive)
- GI50 (NCI-H522): > 100 µM (inactive)
- GI50 (OVCAR-3): > 100 µM (inactive)
- GI50 (EKVX): > 100 µM (inactive)
- GI50 (TK-10): > 100 µM (inactive)
- GI50 (HOP-62): > 100 µM (inactive)
- GI50 (MOLT-4): > 100 µM (inactive)
- GI50 (HOP-92): > 79.4 µM (inactive)
